# Biological target: Voltage-gated inwardly rectifying potassium channel KCNH2 (Homo sapiens) (UniProt Q12809)
# Assay: hERG potassium channel inhibitors, primary screen, automated electrophysiology, CHO cells, Ionworks Quattro (AID 493156)
# Conditions: automated patch clamp current, stronger effect = lower value
# Sequence of Voltage-gated inwardly rectifying potassium channel KCNH2 (Homo sapiens) (Q12809 whole entry, looked up): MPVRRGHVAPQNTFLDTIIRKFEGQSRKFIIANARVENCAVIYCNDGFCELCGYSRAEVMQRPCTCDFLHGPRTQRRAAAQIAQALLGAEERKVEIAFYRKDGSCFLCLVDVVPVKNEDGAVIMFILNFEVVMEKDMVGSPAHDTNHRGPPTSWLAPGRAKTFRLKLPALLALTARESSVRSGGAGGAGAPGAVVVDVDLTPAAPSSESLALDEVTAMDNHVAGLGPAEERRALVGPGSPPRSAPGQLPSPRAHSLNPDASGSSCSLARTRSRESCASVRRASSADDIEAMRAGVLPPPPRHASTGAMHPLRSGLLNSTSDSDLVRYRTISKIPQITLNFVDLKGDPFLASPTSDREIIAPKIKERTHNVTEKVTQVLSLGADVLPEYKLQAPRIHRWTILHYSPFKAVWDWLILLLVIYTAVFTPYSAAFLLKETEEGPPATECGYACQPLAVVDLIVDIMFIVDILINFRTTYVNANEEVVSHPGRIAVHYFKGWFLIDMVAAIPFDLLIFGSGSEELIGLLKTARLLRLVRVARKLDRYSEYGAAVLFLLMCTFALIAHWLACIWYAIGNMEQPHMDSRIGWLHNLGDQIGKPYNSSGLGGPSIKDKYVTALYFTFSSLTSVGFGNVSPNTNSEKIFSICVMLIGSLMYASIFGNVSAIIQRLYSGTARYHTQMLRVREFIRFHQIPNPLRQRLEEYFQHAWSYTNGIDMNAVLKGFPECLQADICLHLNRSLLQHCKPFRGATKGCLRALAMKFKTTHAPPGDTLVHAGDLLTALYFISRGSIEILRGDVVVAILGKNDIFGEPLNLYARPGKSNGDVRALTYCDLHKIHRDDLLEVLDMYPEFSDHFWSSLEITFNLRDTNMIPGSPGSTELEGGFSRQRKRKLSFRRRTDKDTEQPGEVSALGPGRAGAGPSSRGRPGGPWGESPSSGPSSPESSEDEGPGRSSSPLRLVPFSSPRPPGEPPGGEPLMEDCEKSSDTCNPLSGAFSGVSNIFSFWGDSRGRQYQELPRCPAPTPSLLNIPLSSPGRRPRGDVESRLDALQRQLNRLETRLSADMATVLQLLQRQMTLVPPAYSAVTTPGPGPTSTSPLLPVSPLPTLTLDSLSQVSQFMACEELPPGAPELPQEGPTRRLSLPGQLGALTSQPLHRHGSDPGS
SMILES,"current change, negative = inhibition (at 10 µM) [%]","current change, negative = inhibition (current change, at 1 µM) [%]"
Cc1cc(C)n(CCCN2CCC(C(=O)Nc3cccc(-c4cccc(F)c4)c3)CC2)n1,-100,-69.7
CCn1cc(CN2CCC(C(=O)Nc3cccc(-c4cccc(Cl)c4)c3)CC2)c(C)n1,-100,-48.6
O=C(c1cccc(-c2ccco2)c1)N1CCCC(N2CCN(c3ccc(F)cc3)CC2)C1 (stereo not drawn),-100,-45.2
Cc1occc1C(=O)N1CCN(c2ccc([N+](=O)[O-])cc2)CC1,-100,-55.3
CCc1ccc(CN2CCC(Oc3ccc(C(=O)N4CCCC4)cc3)CC2)cc1,-100,-87.6
Cc1ccccc1CN1CCN(C(=O)c2cc(-c3ccncc3)nc3ccccc23)CC1,-100,-25.6
CSc1cccc(CN2CCCC(CNC(=O)c3ccco3)C2)c1 (stereo not drawn),-100,-57.7
Cc1ccc(-n2ncc3c2CCCC3NC(=O)c2ccoc2)cc1C (stereo not drawn),-100,-88.6
Cc1ccccc1C(=O)Nc1ccnn1C1CCN(Cc2cccnc2)CC1,-100,-58.5

# Reference: PubChem BioAssay AID493156 (Johns Hopkins Ion Channel Center, 2011)
